Peptide text beside a SMILES is read from it. * marks the point of attachment. Hydrocinnamoyl = O=C(CCc1ccccc1)*
Assay: in vitro
Details: human, hela cells, % viability

Row | SMILES | viability at 28.5 h, 10 µM [%]
1 | N#CC(CC(=O)O)C(Cc1ccccc1)c1ccccc1 (stereo not drawn) [CBK286837] | 107
2 | O=C(O)CC(Cc1ccccc1)C(=O)Nc1ccc(F)cc1 (stereo not drawn) [CBK286841] | 96.1
3 | COc1cccc(NC(=O)CC(CN2CCC(O)CC2)C(=O)O)c1 (stereo not drawn) [CBK286842] | 93
4 | O=C(O)C1C2CCC(O2)C1C(=O)Nc1cnn(Cc2ccccc2)c1 (stereo not drawn) [CBK286849] | 96
5 | CC1=CC(C)C(C(=O)O)C(C(=O)Nc2ccccc2)C1 (stereo not drawn) [CBK286851] | 90.4
6 | O=C(CC1(C(=O)O)CCCC1)NC1CCS(=O)(=O)C1 (stereo not drawn) [CBK286855] | 92.3
7 | O=C(O)CCC(=O)N1c2ccccc2CC1c1ccccc1 (stereo not drawn) [CBK286860] | 91.1
8 | Cc1ccc2nc(SCCC(=O)O)cc(C)c2c1 [CBK286861] | 90.1
9 | Cc1ccc(C(=O)O)cc1NC(=O)C(=O)NCC(c1ccccc1)N1CCN(C)CC1 (stereo not drawn) [CBK286864] | 92.4
10 | O=C(CC(CN1CCN(Cc2ccccn2)CC1)C(=O)O)NCc1ccccc1 (stereo not drawn) [CBK286865] | 81.2
11 | O=C(O)CC1(CNC(=O)Cn2nc(-c3ccccc3)ccc2=O)CCCCC1 [CBK286866] | 84.1
12 | CCn1ncc(CN2CCN(C(=O)c3nn(C)cc3C(=O)O)CC2)c1C [CBK286870] | 89.3
13 | Cn1c(C(=O)O)cc2cc(Oc3ccccc3)ccc21 [CBK286873] | 86.3
14 | O=C(O)CNC(=O)CNC(=O)CCc1ccccc1 [CBK286874] (Hydrocinnamoyl-Gly-Gly-OH) | 87.1
15 | Cc1nn(-c2ccccc2)c(C)c1CNC(=O)C1C2C=CC(C2)C1C(=O)O (stereo not drawn) [CBK286877] | 90.4
16 | Cc1nn(C)c(C)c1CN(C)C(=O)CCCC(=O)O [CBK286879] | 82.8
17 | O=C(O)CCn1c(=O)cc(C(F)F)c2cn(Cc3ccccc3)nc21 [CBK286881] | 91.3
18 | O=C(O)COCc1cc(-c2ccc3c(c2)OCO3)on1 [CBK286883] | 110
19 | CCn1nc(C)c(CN(C)C(=O)C2CC=CCC2C(=O)O)c1C (stereo not drawn) [CBK286884] | 86.1
20 | O=C(O)CCc1nc2nc(-c3ccco3)cc(C(F)(F)F)n2n1 [CBK286889] | 86
21 | CC1Cc2ccccc2N1C(=O)C1C2C=CC(O2)C1C(=O)O (stereo not drawn) [CBK286891] | 86.9
22 | O=C(O)c1ccc(CSc2nc3ccccc3[nH]2)cc1 [CBK286892] | 82
23 | CCC1CC(C(F)(F)F)n2ncc(C(=O)O)c2N1 (stereo not drawn) [CBK286893] | 85.2

Row | SMILES | viability at 28.5 h, 10 µM [%]
24 | O=C(O)CNC(=O)c1ccccc1NC(=O)c1ccco1 [CBK286894] | 90.2
25 | O=C(O)C1CCN(C(=O)CCC(=O)N2CCN(c3ccccc3)CC2)CC1 [CBK286896] | 93.9
26 | CC(C)CN1C(=O)c2ccc(C(=O)NCc3ccc(C(=O)O)cc3)cc2C1=O [CBK286898] | 116
27 | CC1CN(CCC(=O)O)Cc2cc(Cl)ccc2O1 (stereo not drawn) [CBK286899] | 103
28 | O=C(O)/C=C/c1ccccc1OCC(=O)NC1CCCCC1 [CBK286900] | 99.8
29 | O=C(O)C1CC(=O)N(c2cccc3ccccc23)C1 (stereo not drawn) [CBK286902] | 88.8
30 | O=C(O)C1CCCCC1C(=O)NCCCN1CCOCC1 (stereo not drawn) [CBK286903] | 83.4
31 | O=C(O)C1=CC(c2c[nH]nc2-c2ccc(F)cc2)n2ncnc2N1 (stereo not drawn) [CBK286906] | 86.2
32 | COc1ccc(Cl)cc1/C=C/C(=O)NCc1ccc(C(=O)O)cc1 [CBK286908] | 89.3
33 | O=C(O)CC(NCc1ccco1)C(=O)Nc1cccc(F)c1 (stereo not drawn) [CBK286910] | 97
34 | O=C(O)COc1cccc(NS(=O)(=O)c2ccc(Br)cc2)c1 [CBK286911] | 111
35 | NC(CC(=O)O)c1ccc(F)c(Oc2ccccc2)c1 (stereo not drawn) [CBK286912] | 101
36 | O=C(O)C1CCCCC1C(=O)NCCCN1CCCC1=O (stereo not drawn) [CBK286914] | 83.1
37 | CN1CCN(NC(=O)C2C3C=CC(C3)C2C(=O)O)CC1 (stereo not drawn) [CBK286915] | 90.1
38 | O=C(O)CCNS(=O)(=O)c1ccc2ccccc2c1 [CBK286920] | 98.6
39 | O=C(O)[C@@H]1CSC(c2ccc(C(F)(F)F)cc2)N1 (stereo partly drawn) [CBK286921] | 87.7
40 | O=C(O)CCc1nnc(S)n1Cc1ccccc1 [CBK286926] | 93.8
41 | Cc1ccc(C2SCC(C(=O)O)N2C(=O)c2cccc(Cl)c2)cc1 (stereo not drawn) [CBK286931] | 93.3
42 | O=C(O)c1cccn1-c1cc(Cl)cc(Cl)c1 [CBK286932] | 98.8
43 | O=C1CC(/C=C/c2ccccc2)Cc2[nH]c(=O)c(C(=O)O)cc21 (stereo not drawn) [CBK286933] | 92.9
44 | CSc1ccc([C@H]2[C@H](C(=O)O)CC(=O)N2Cc2ccccc2)cc1 [CBK286934] | 91.7
45 | Cc1ccc(S(=O)(=O)N2CCN(C(=O)C3CCCCC3C(=O)O)CC2)cc1C (stereo not drawn) [CBK286936] | 97
46 | O=C(O)C1C2C=CC3(CN(C/C=C/c4ccccc4)C(=O)C13)O2 (stereo not drawn) [CBK286946] | 119

Row | SMILES | viability at 28.5 h, 10 µM [%]
47 | O=C(O)CCC(=O)Nc1nc(-c2ccccc2)cs1 [CBK286947] | 109
48 | Cc1nn(Cc2cccc(C(=O)O)c2)c(C)c1Br [CBK286950] | 100
49 | CCS(=O)(=O)c1ccc2cc(C(=O)O)[nH]c2c1 [CBK286951] | 101
50 | O=C(O)CN1C(=O)C2CCC(c3ccccc3)CC2C1=O (stereo not drawn) [CBK286952] | 95.7
51 | CC1(C(=O)O)CCC(C(=O)Nc2ccc(F)cc2)C1(C)C (stereo not drawn) [CBK286953] | 98.8
52 | COc1ccc2nc(C)c(CCC(=O)O)c(O)c2c1 [CBK286955] | 98.8
53 | O=C(O)CCC(=O)Nc1ccc(Oc2ccccc2)cc1 [CBK286957] | 88.9
54 | Cc1c(C(=O)O)c(-c2ccc(Cl)cc2)cn1CCO [CBK286959] | 87
55 | CC1CC(Nc2ccccc2)c2ccccc2N1C(=O)CCCC(=O)O (stereo not drawn) [CBK286960] | 89.3
56 | O=C(O)CCc1nc2ccccc2n1C1CCCCC1 [CBK286961] | 87.5
57 | Cc1ccc(S(=O)(=O)N2CCSC2C(=O)O)cc1 (stereo not drawn) [CBK286964] | 86.8
58 | Cc1nc(=O)c(-c2ccccc2)c(C)n1-c1cccc(C(=O)O)c1 [CBK286965] | 94.3
59 | O=C(O)c1cccc(N2N=C(c3ccccc3)CC2=O)c1 [CBK286966] | 96.5
60 | O=C(O)C1C2CCC(C2)C1C(=O)NCCCCc1ccccc1 (stereo not drawn) [CBK286967] | 91.1
61 | Cc1cc(C)nc(NC2=NC(=O)CC(C(=O)O)N2c2ccc(Cl)cc2Cl)n1 (stereo not drawn) [CBK286968] | 94.5
62 | COc1ccccc1C(CC(=O)O)c1ccc2c(c1)OCO2 (stereo not drawn) [CBK286971] | 91.2
63 | O=C(O)c1cc(NC(=O)C2CCCCC2)cc(C(=O)O)c1 [CBK286972] | 103
64 | COc1ccc(CC(CC(=O)O)C(=O)Nc2ccc(OC)cc2)cc1 (stereo not drawn) [CBK286975] | 87.9
65 | Cn1c(CNc2ccccc2C(=O)O)c(C#N)c2ccccc21 [CBK286977] | 88.7
66 | CCn1cc(C(=O)O)c(=O)c2cc(F)c(N3CCN(C(=O)c4ccc(C)cc4)CC3)cc21 [CBK286986] | 99.6
67 | O=C(O)C1C2C=CC3(CN(c4ccccc4)C(=O)C13)O2 (stereo not drawn) [CBK286992] | 87.4
68 | Cc1ccc(C(=O)c2cccc(N3C(=O)c4ccc(C(=O)O)cc4C3=O)c2)cc1C [CBK286994] | 110
69 | CC(NC(=O)/C=C\C(=O)O)c1ccc2c(c1)OCO2 (stereo not drawn) [CBK286996] | 93.3

Row | SMILES | viability at 28.5 h, 10 µM [%]
70 | O=C(O)C1CC(=O)N(c2ccc(Br)cc2)C1 (stereo not drawn) [CBK286998] | 87.7
71 | NC(CC(=O)O)c1ccc(OCc2ccccc2)cc1 (stereo not drawn) [CBK286999] | 80.9
72 | O=C(O)CNC1=NC2(CCCCC2)Cc2ccccc21 [CBK287001] | 78.2
73 | Cc1ccc2nc(NCC(=O)O)nc(-c3ccccc3)c2c1 [CBK287002] | 84.4
74 | Cc1cccc(-n2nnnc2SC(C)C(=O)O)c1 (stereo not drawn) [CBK287003] | 90.1
75 | CC1=CC(C)C(CN2CC34C=CC(O3)C(C(=O)O)C4C2=O)C(C)C1 (stereo not drawn) [CBK287005] | 96.1
76 | O=C(O)c1cc(NCc2cccc(F)c2F)n[nH]1 [CBK287006] | 93.4
77 | CCCNC(=O)Nc1ccc(Cl)c(C(=O)O)c1 [CBK287009] | 85.6
78 | O=C(O)COc1ccc(N2C(=O)C(O)=C(C(=O)c3ccccc3)C2c2cccc(F)c2)cc1 (stereo not drawn) [CBK287010] | 96.8
79 | Cc1nn2c(=O)c(CCC(=O)O)c(C)[nH]c2c1-c1ccccc1 [CBK287011] | 92.4
80 | CN1C(C(=O)O)=CC(c2ccc(F)cc2)=NS1(=O)=O [CBK287016] | 97.7
81 | O=C(O)COc1ccccc1/C=C/c1cc(C(F)(F)F)[nH]c(=O)n1 [CBK287017] | 103
82 | COc1cc(C(=O)O)cc2c1NC(c1ccc(C(=O)O)cc1)C1CC=CC21 (stereo not drawn) [CBK287018] | 90.3
83 | CC(=O)N1CCN(C(=O)C2C(C(=O)O)C2(C)C)CC1 (stereo not drawn) [CBK287021] | 102
84 | O=C(O)C1CCCN1C(=O)c1ccc(C#CC2(O)CCCCC2)cc1 (stereo not drawn) [CBK287022] | 105
85 | Cc1ccc(OCC(=O)Nc2cccc(C(=O)O)c2)cc1 [CBK287023] | 110
86 | Cc1ccc(Cl)cc1N1CCN(C(=O)C2C3C=CC(C3)C2C(=O)O)CC1 (stereo not drawn) [CBK287025] | 117
87 | CC(C)(C)OC(=O)NCCCn1cc(C(=O)O)nn1 [CBK287028] | 90.4
88 | CC(C)(C)OC(=O)NCC1(CC(=O)O)CCCCC1 [CBK287030] | 93
89 | O=C(O)C1CCCCC1C(=O)NCCN1CCCCC1 (stereo not drawn) [CBK287031] | 91.4
90 | CCOCCN1C[C@@H](C(F)(F)F)[C@H](C(=O)O)C1 [CBK287033] | 91.9
91 | COc1ccccc1C(=O)Nc1ccc(Cl)c(C(=O)O)c1 [CBK287034] | 82.1
92 | O=C(O)C(=O)c1cn(Cc2ccccc2Cl)c2ccccc12 [CBK287035] | 88.8

Same assay, conditions: human, hela cells, % viability, bulk resorufin, single well

Row | SMILES | viability at 28.5 h, 10 µM [%]
93 | CC(C)=C1C2CCC1C(C(=O)N1CCC3(CC1)OCCO3)C2C(=O)O (stereo not drawn) [CBK286937] | 92.7

— article PMC12040169 (PLOS Biology, 2025)
